Biological target: T1, h-NAAA (Homo sapiens, UniProt Q02083)
T1 construct: made in house; host or cells: HEK-293 cells stably overexpressing human NAAA; enzyme-enriched (lysosomal) lysate
T1 sequence (Q02083 29-125 limits assumed): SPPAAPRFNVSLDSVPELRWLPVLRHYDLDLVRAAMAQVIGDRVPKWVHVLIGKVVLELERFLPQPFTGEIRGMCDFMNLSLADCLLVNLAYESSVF
T1 sequence (Q02083 126-359 limits assumed): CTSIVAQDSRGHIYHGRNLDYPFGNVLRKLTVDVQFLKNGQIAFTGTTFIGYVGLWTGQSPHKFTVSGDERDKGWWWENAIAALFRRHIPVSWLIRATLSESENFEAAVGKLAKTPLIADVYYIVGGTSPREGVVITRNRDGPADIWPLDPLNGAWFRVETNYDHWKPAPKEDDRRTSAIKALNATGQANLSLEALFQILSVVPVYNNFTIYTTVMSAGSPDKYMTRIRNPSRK
Experiment: Fluorogenic human-NAAA assay (h-NAAA, fluo.)
Format: biochemical
Details: for IC50 / pIC50: h-NAAA (fluo.); for IC50: mean ± SD (n ≥ 3), n.a.: not active @50 μM (<10% inhibition); for LipE: LipE = pIC50 – c Log P (h-NAAA); for pIC50: Table S1
Experimental: Human recombinant proteins were obtained from HEK-293 stable overexpressing human NAAA, AC, and FAAH-1 cell lines, respectively. Cells were grown in Dulbecco’s modified Eagle medium (DMEM) containing 10% FBS, 1% glutamine, 1 mM sodium pyruvate, and 500 μg/mL geneticin (G418). To obtain a high-density cell proliferation, h-NAAA-HEK-293 cells were grown in BelloCell-500 bottle, a compact bioreactor. On the contrary, h-AC and h-FAAH-1-HEK-293 cells were grown in 150 mm dishes and scraped off with cold PBS 1× pH 7.4 at 80% confluence. Cell pellets were collected and stored at −80 °C until protein preparation.
HEK-293 cells stably transfected with the human NAAA or human AC coding sequences were used as the enzyme source. Cells were suspended in 20 mM Tris-HCl (pH 7.4) with 0.32 M sucrose, sonicated, and centrifuged at 800g for 30 min at 4 °C. Supernatants were then centrifuged at 12,000g for 30 min at 4 °C. Pellets were resuspended in PBS buffer (pH 7.4) and subjected to three freeze-thaw cycles at −80 °C. The suspension was finally centrifuged at 105,000g for 1 h at 4 °C, supernatants were collected, protein concentration was measured, and samples were aliquoted and stored at −80 °C until use.
The assay was run in 96-well microplates (Black OptiPlate-96 F; PerkinElmer, Massachusetts, USA), in a total reaction volume of 200 μL. h-NAAA protein preparation (4 μg) was preincubated for 30 min with various concentrations of test compounds or vehicle control (DMSO 5%) in 100 mM citrate/phosphate buffer (pH 4.5) containing 3.0 mM DTT, 0.1% NP40, 0.05% BSA, and 150 mM NaCl. The background (no activity) samples were prepared using assay buffer without h-NAAA and DMSO (5%). N-(4-methyl-2-oxo-chromen-7-yl)-hexadecanamide (PAMCA)[60] was used as a substrate (2 μM) and the reaction was carried out for 50 min at 37 °C. Fluorescence was measured with EnVision 2014 Multilabel Reader (PerkinElmer, Massachusetts, USA) using an excitation wavelength of 355 nm and an emission of 460 nm. IC50 values were calculated by non-linear regression analysis of log[concentration]/response curves generated with mean replicate values using a four-parameter Hill equation curve fitting with GraphPad Prism 5 (GraphPad Software Inc., CA, USA).

Compound `Cc1n[nH]c(C)c1S(=O)(=O)N1[C@@H]2CC[C@H]1C[C@H](Oc1ccccc1)C2` [Compound 32, (1R,3s,5S)-8-((3,5-Dimethyl-1H-pyrazol-4-yl)sulfonyl)-3-phenoxy-8-azabicyclo[3.2.1]octane] has an IC50 of 655 ± 45 nM.

With `Cc1ccc(O[C@H]2C[C@H]3CC[C@@H](C2)N3S(=O)(=O)c2c(C)n[nH]c2C)cc1` [Compound 33, (1R,3r,5S)-8-((3,5-Dimethyl-1H-pyrazol-4-yl)sulfonyl)-3-(p-tolyloxy)-8-azabicyclo[3.2.1]octane] the IC50 was 36 ± 4 nM.

For `Cc1ccc(O[C@@H]2C[C@H]3CC[C@@H](C2)N3S(=O)(=O)c2c(C)n[nH]c2C)cc1` [Compound 34, (1R,3s,5S)-8-((3,5-Dimethyl-1H-pyrazol-4-yl)sulfonyl)-3-(p-tolyloxy)-8-azabicyclo[3.2.1]octane], the IC50 was 8710 ± 340 nM.

With `Cc1cccc(OC2CC3CCC(C2)N3S(=O)(=O)c2c(C)n[nH]c2C)c1` [Compound 35, (1R,3r,5S)-8-((3,5-Dimethyl-1H-pyrazol-4-yl)sulfonyl)-3-(m-tolyloxy)-8-azabicyclo[3.2.1]octane] the IC50 was 614 ± 140 nM.

`Cc1ccccc1O[C@H]1C[C@H]2CC[C@@H](C1)N2S(=O)(=O)c1c(C)n[nH]c1C` [Compound 36, (1R,3r,5S)-8-((3,5-Dimethyl-1H-pyrazol-4-yl)sulfonyl)-3-(o-tolyloxy)-8-azabicyclo[3.2.1]octane] showed an IC50 of 291 ± 10 nM.

`CCc1ccc(O[C@H]2C[C@H]3CC[C@@H](C2)N3S(=O)(=O)c2c(C)n[nH]c2C)cc1` [Compound 37, (1R,3r,5S)-8-((3,5-Dimethyl-1H-pyrazol-4-yl)sulfonyl)-3-(4-ethylphenoxy)-8-azabicyclo[3.2.1]octane] was tested, and the IC50 was 51 ± 5 nM.

Compound `Cc1n[nH]c(C)c1S(=O)(=O)N1[C@@H]2CC[C@H]1C[C@@H](Oc1ccc(C(C)C)cc1)C2` [Compound 38, (1R,3r,5S)-8-((3,5-Dimethyl-1H-pyrazol-4-yl)sulfonyl)-3-(4-isopropylphenoxy)-8-azabicyclo[3.2.1]octane] has an IC50 of 744 ± 90 nM.

In the case of `CCCCCCc1ccc(O[C@H]2C[C@H]3CC[C@@H](C2)N3S(=O)(=O)c2c(C)n[nH]c2C)cc1` [Compound 41, (1R,3r,5S)-8-((3,5-Dimethyl-1H-pyrazol-4-yl)sulfonyl)-3-(4-hexylphenoxy)-8-azabicyclo[3.2.1]octane], the IC50 is reported as 19 ± 1 nM.

Compound `Cc1n[nH]c(C)c1S(=O)(=O)N1[C@@H]2CC[C@H]1C[C@@H](Oc1ccc(CCC(C)C)cc1)C2` [Compound 42, (1R,3r,5S)-8-((3,5-Dimethyl-1H-pyrazol-4-yl)sulfonyl)-3-(4-isopentylphenoxy)-8-azabicyclo[3.2.1]octane] has an IC50 of 114 ± 10 nM.

With `Cc1n[nH]c(C)c1S(=O)(=O)N1[C@@H]2CC[C@H]1C[C@@H](Oc1ccc(C(F)(F)F)cc1)C2` [Compound 43, (1R,3r,5S)-8-((3,5-Dimethyl-1H-pyrazol-4-yl)sulfonyl)-3-(4-(trifluoromethyl)phenoxy)-8-azabicyclo[3.2.1]octane] the IC50 was 212 ± 20 nM.

Compound `COc1ccc(O[C@H]2C[C@H]3CC[C@@H](C2)N3S(=O)(=O)c2c(C)n[nH]c2C)cc1` [Compound 44, (1R,3r,5S)-8-((3,5-Dimethyl-1H-pyrazol-4-yl)sulfonyl)-3-(4-methoxyphenoxy)-8-azabicyclo[3.2.1]octane] has an IC50 of 175 ± 15 nM.

With `Cc1n[nH]c(C)c1S(=O)(=O)N1[C@@H]2CC[C@H]1C[C@@H](Oc1ccc(C#N)cc1)C2` [Compound 45] the IC50 was 757 ± 80 nM.

`Cc1n[nH]c(C)c1S(=O)(=O)N1[C@@H]2CC[C@H]1C[C@@H](Oc1ccc(F)cc1)C2` [Compound 46, (1R,3r,5S)-8-((3,5-Dimethyl-1H-pyrazol-4-yl)sulfonyl)-3-(4-fluorophenoxy)-8-azabicyclo[3.2.1]octane] was tested, and the IC50 was 143 ± 7 nM.

With `CCCOc1ccc(O[C@H]2C[C@H]3CC[C@@H](C2)N3S(=O)(=O)c2c(C)n[nH]c2C)cc1` [Compound 47, (1R,3r,5S)-8-((3,5-Dimethyl-1H-pyrazol-4-yl)sulfonyl)-3-(4-propoxyphenoxy)-8-azabicyclo[3.2.1]octane] the LipE was 3.55, the pIC50 was 6.35 and the IC50 was 450 ± 70 nM.

`CCOCc1ccc(O[C@H]2C[C@H]3CC[C@@H](C2)N3S(=O)(=O)c2c(C)n[nH]c2C)cc1` [Compound 48, (1R,3r,5S)-8-((3,5-Dimethyl-1H-pyrazol-4-yl)sulfonyl)-3-(4-(ethoxymethyl)phenoxy)-8-azabicyclo[3.2.1]octane] gave a LipE of 5.70, a pIC50 of 7.79 and an IC50 of 16 ± 2 nM.
